Measurements published in patent US6737383B1, “Herbicidal oxadiazolidines” (priority 1999, dated 2004).

Assays:
bamyardgrass = assay: Test B flood test barnyardgrass; format: in vivo, Echinochloa crus-galli
Procedure, shortened: (§1)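 Plants were grown to the 2-leaf stage before treatment with test chemical, then held in a greenhouse for twelve to sixteen days. Injury was visually rated against untreated controls on a 0–10 scale, where 0 is no effect and 10 is complete control.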

wheat = assay: Test B pre/postemergence wheat; format: in vivo, Triticum aestivum
Procedure, shortened: (§2)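 Herbicidal effect was estimated by eye on a ten-point control scale after plants spent twelve to sixteen days in a greenhouse following soil or foliar treatment. Foliar sprays targeted plants at one to four leaves; all doses were formulated in a non-phytotoxic solvent with surfactant.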

surinam grass = assay: Test B pre/postemergence surinam grass; format: in vivo, Brachiaria decumbens
Procedure, shortened: as §2

wild oat = assay: Test B pre/postemergence wild oat; format: in vivo, Avena fatua
Procedure, shortened: as §2

duck salad = assay: Test B flood test duck salad; format: in vivo, Heteranthera limosa
Procedure, shortened: as §1

bedstraw = assay: Test B pre/postemergence bedstraw; format: in vivo, Galium aparine
Procedure, shortened: as §2

rape = assay: Test B pre/postemergence rape; format: in vivo, Brassica napus
Procedure, shortened: as §2

crabgrass = assay: Test B pre/postemergence crabgrass; format: in vivo, Digitaria sanguinalis
Procedure, shortened: as §2

morningglory = assay: Test B pre/postemergence morningglory; format: in vivo, Ipomoea hederacea
Procedure, shortened: as §2

smallflower flatsedge = assay: Test B flood test smallflower flatsedge; format: in vivo, Cyperus difformis
Procedure, shortened: as §1

soybean = assay: Test B pre/postemergence soybean; format: in vivo, Glycine max
Procedure, shortened: as §2

blackgrass = assay: Test B pre/postemergence blackgrass; format: in vivo, Alopecurus myosuroides
Procedure, shortened: as §2

giant foxtail = assay: Test B pre/postemergence giant foxtail; format: in vivo, Setaria faberii
Procedure, shortened: as §2

cocklebur = assay: Test B pre/postemergence cocklebur; format: in vivo, Xanthium strumarium
Procedure, shortened: as §2

corn = assay: Test B pre/postemergence corn; format: in vivo, Zea mays
Procedure, shortened: as §2

velvetleaf = assay: Test B pre/postemergence velvetleaf; format: in vivo, Abutilon theophrasti
Procedure, shortened: as §2

[1] = Rate 62 g/ha, flood test species, Pre-emergence, visual evaluation after twelve to sixteen days
[2] = Rate 125 g/ha, under heading Pre-emergence, flood test species, visual evaluation after twelve to sixteen days
[3] = Rate 250 g/ha, Pre-emergence (flood test species), scale 0 to 10, 0 is no effect, 10 is complete control
[4] = Rate 500 g/ha, Pre-emergence section of Table B, 0 to 10 scale (0 no effect, 10 complete control)
[5] = Postemergence, Rate 62 g/ha, scale of 0 to 10, 0 is no effect, 10 is complete control
[6] = Postemergence, Rate 500 g/ha, scale of 0 to 10 where 0 is no effect and 10 is complete control
[7] = Preemergence, Rate 62 g/ha, scale 0 to 10 (0 no effect, 10 complete control)
[8] = Preemergence, Rate 125 g/ha, scale 0 to 10, 0 is no effect, 10 is complete control
[9] = Preemergence, Rate 500 g/ha, scale of 0 to 10 where 0 is no effect and 10 is complete control
[10] = Rate 250 g/ha, Postemergence, scale of 0 to 10 where 0 is no effect and 10 is complete control
[11] = Postemergence, Rate 125 g/ha, scale 0 to 10, 0 is no effect, 10 is complete control

CCCCCCn1c(=O)on(C(=O)N(c2ccccc2)C(C)C)c1=O [Compound 558]
Plant response rating, Barnyardgrass (0 to 10 scale, 0 is no effect, 10 is complete control) (bamyardgrass; [1]): 0 | Barnyardgrass plant response rating (0 to 10 scale, 0 is no effect, 10 is complete control) (bamyardgrass; [2]): 0 | Barnyardgrass plant response rating (bamyardgrass; [3]): 2 | Barnyardgrass plant response rating (bamyardgrass; [4]): 6 | Wheat plant response rating (wheat; [5]): 0 | Plant response rating, Wheat (wheat; [6]): 0 | Wheat plant response rating (wheat; [7]): 0 | Wheat plant response rating (wheat; [8]): 0 | Wheat plant response rating (0 to 10 scale) (wheat; Preemergence, Rate 250 g/ha): 0 | Wheat plant response rating (wheat; [9]): 2 | Plant response rating, Wheat (wheat; [10]): 0 | B. signalgrass plant response rating (surinam grass; [5]): 0 | Plant response rating, B. signalgrass (surinam grass; [6]): 3 | B. signalgrass plant response rating (surinam grass; [7]): 0 | B. signalgrass plant response rating (surinam grass; [8]): 0 | B. signalgrass plant response rating (0 to 10 scale, 0 is no effect, 10 is complete control) (surinam grass; Preemergence, Rate 250 g/ha): 3 | B. signalgrass plant response rating (surinam grass; [9]): 6 | Plant response rating, B. signalgrass (surinam grass; [10]): 0 | Wild oats plant response rating (wild oat; [5]): 0 | Plant response rating, Wild oats (wild oat; [6]): 0 | Wild oats plant response rating (wild oat; [7]): 0 | Wild oats plant response rating (wild oat; [8]): 0 | Wild oats plant response rating (0 to 10 scale) (wild oat; Preemergence, Rate 250 g/ha): 0 | Wild oats plant response rating (wild oat; [9]): 2 | Plant response rating, Wild oats (wild oat; [10]): 0 | Plant response rating, Ducksalad (0 to 10 scale, 0 is no effect, 10 is complete control) (duck salad; [1]): 0 | Ducksalad plant response rating (0 to 10 scale, 0 is no effect, 10 is complete control) (duck salad; [2]): 0 | Ducksalad plant response rating (duck salad; [3]): 0 | Ducksalad plant response rating (duck salad; [4]): 0 | Bedstraw plant response rating (bedstraw; [11]): 0 | Bedstraw plant response rating (bedstraw; [7]): 0 | Bedstraw plant response rating (bedstraw; [8]): 0 | Bedstraw plant response rating (0 to 10 scale) (bedstraw; Preemergence, Rate 250 g/ha): 0 | Bedstraw plant response rating (bedstraw; [9]): 0 | Plant response rating, Bedstraw (bedstraw; [10]): 0 | Rape plant response rating (rape; [5]): 0 | Rape plant response rating (rape; [11]): 0 | Plant response rating, Rape (rape; [6]): 2 | Rape plant response rating (rape; [7]): 0 | Rape plant response rating (rape; [8]): 0 | Rape plant response rating (0 to 10 scale) (rape; Preemergence, Rate 250 g/ha): 2 | Rape plant response rating (rape; [9]): 2 | Plant response rating, Rape (rape; [10]): 0 | Crabgrass plant response rating (crabgrass; [5]): 0 | Crabgrass plant response rating (crabgrass; [11]): 0 | Plant response rating, Crabgrass (crabgrass; [6]): 8 | Crabgrass plant response rating (crabgrass; [7]): 8 | Crabgrass plant response rating (crabgrass; [8]): 9 | Crabgrass plant response rating (0 to 10 scale) (crabgrass; Preemergence, Rate 250 g/ha): 9 | Crabgrass plant response rating (crabgrass; [9]): 9 | Plant response rating, Crabgrass (crabgrass; [10]): 8 | Morningglory plant response rating (morningglory; [5]): 10 | Morningglory plant response rating (morningglory; [11]): 10 | Plant response rating, Morningglory (morningglory; [6]): 10 | Morningglory plant response rating (morningglory; [7]): 0 | Morningglory plant response rating (morningglory; [8]): 0 | Morningglory plant response rating (0 to 10 scale) (morningglory; Preemergence, Rate 250 g/ha): 0 | Morningglory plant response rating (morningglory; [9]): 0 | Plant response rating, Morningglory (morningglory; [10]): 10 | Plant response rating, S. Flatsedge (0 to 10 scale, 0 is no effect, 10 is complete control) (smallflower flatsedge; [1]): 0 | S. Flatsedge plant response rating (0 to 10 scale, 0 is no effect, 10 is complete control) (smallflower flatsedge; [2]): 0 | S. Flatsedge plant response rating (smallflower flatsedge; [3]): 0 | S. Flatsedge plant response rating (smallflower flatsedge; [4]): 0 | Soybean plant response rating (soybean; [5]): 3 | Plant response rating, Soybean (soybean; [6]): 4 | Soybean plant response rating (soybean; [7]): 0 | Soybean plant response rating (soybean; [8]): 0 | Soybean plant response rating (0 to 10 scale) (soybean; Preemergence, Rate 250 g/ha): 0 | Soybean plant response rating (soybean; [9]): 0 | Plant response rating, Soybean (soybean; [10]): 4 | Blackgrass plant response rating (blackgrass; [5]): 0 | Blackgrass plant response rating (blackgrass; [11]): 0 | Plant response rating, Blackgrass (blackgrass; [6]): 2 | Blackgrass plant response rating (blackgrass; [7]): 2 | Blackgrass plant response rating (blackgrass; [8]): 2 | Blackgrass plant response rating (0 to 10 scale) (blackgrass; Preemergence, Rate 250 g/ha): 6 | Blackgrass plant response rating (blackgrass; [9]): 9 | Plant response rating, Blackgrass (blackgrass; [10]): 2 | Giant foxtail plant response rating (giant foxtail; [5]): 2 | Giant foxtail plant response rating (giant foxtail; [11]): 2 | Plant response rating, Giant foxtail (giant foxtail; [6]): 8 | Giant foxtail plant response rating (giant foxtail; [7]): 8 | Giant foxtail plant response rating (giant foxtail; [8]): 9 | Giant foxtail plant response rating (0 to 10 scale) (giant foxtail; Preemergence, Rate 250 g/ha): 9 | Giant foxtail plant response rating (giant foxtail; [9]): 10 | Plant response rating, Giant foxtail (giant foxtail; [10]): 5 | Cocklebur plant response rating (cocklebur; [5]): 0 | Cocklebur plant response rating (cocklebur; [11]): 0 | Plant response rating, Cocklebur (cocklebur; [6]): 0 | Cocklebur plant response rating (cocklebur; [7]): 0 | Cocklebur plant response rating (cocklebur; [8]): 0 | Cocklebur plant response rating (0 to 10 scale) (cocklebur; Preemergence, Rate 250 g/ha): 0 | Cocklebur plant response rating (cocklebur; [9]): 0 | Plant response rating, Cocklebur (cocklebur; [10]): 0 | Corn plant response rating (corn; [5]): 0 | Corn plant response rating (corn; [11]): 0 | Plant response rating, Corn (corn; [6]): 0 | Corn plant response rating (corn; [7]): 0 | Corn plant response rating (corn; [8]): 0 | Corn plant response rating (0 to 10 scale) (corn; Preemergence, Rate 250 g/ha): 0 | Corn plant response rating (corn; [9]): 0 | Plant response rating, Corn (corn; [10]): 0 | Velvetleaf plant response rating (velvetleaf; [5]): 0 | Plant response rating, Velvetleaf (velvetleaf; [6]): 2 | Velvetleaf plant response rating (velvetleaf; [7]): 0 | Velvetleaf plant response rating (velvetleaf; [8]): 0 | Velvetleaf plant response rating (0 to 10 scale) (velvetleaf; Preemergence, Rate 250 g/ha): 0 | Velvetleaf plant response rating (velvetleaf; [9]): 0 | Plant response rating, Velvetleaf (velvetleaf; [10]): 0
